In patent US8444858B2, “Control of development of biofilms in industrial process water” (A.Y. Laboratories Ltd., priority 2001, dated 2013):
Where two headings read alike, the source gives them in different places. Marks after values point to notes of the source that are not given here.

Legend:
[1] = system: mixed culture of slime-forming-bacteria which had been isolated from a paper machine; assay: Formation of biofilm on stainless steel coupons in a model system (viable counts in medium and on coupons); format: cell-based
Experimental: Formation of biofilm on stainless steel coupons in the presence or absence of an oxidizing biocide or a biofilm inhibiting substance was evaluated in the laboratory. The test system consisted of (a) three closed flasks each containing 20 L nutrient-rich medium (diluted three-fold from its recommended use concentration), (b) three closed cells containing stainless steel coupons hanging freely, and (c) three identical circulation pumps, each pump connected via plastic pipes to one of the flasks and to one of the cells. The system was placed in a thermostatic room at 35° C.
An innoculum containing a mixed culture of slime-forming-bacteria which had been isolated from a paper machine was added to each of the flasks. An oxidizer containing a 5 ppm mixture (expressed as total Cl2) of bromochlorodimethylhydantoin (an oxidizing biocide which is a source of HOBr and HOCl) (hereinafter “mixed halogens”) was added to the first flask once a day for the duration of the trial (4 days). […] The third flask served as a control for the two flasks treated with the oxidizing biocide or biofilm inhibiting substances. […] A diluted solution of sodium hypochlorite in deionized (DI) water (˜8000 ppm as total chlorine) was fed with one pump; a diluted solution of ammonium bromide (12500 ppm) was fed with the second pump. The two diluted solutions were synchronously mixed in a short glass pipe to form a pre-injection solution of biofilm inhibiting substance, using a pH meter to control and check the stability of the biofilm inhibiting substance formed. The biofilm inhibiting substance was fed to the test system immediately as it was produced.
On days 2 and 4, each closed cell was opened and 2 coupons were aseptically removed from each cell. At the same time samples of the circulating medium were taken as well. Sampling was conducted after feeding the daily slug dose of biocide.
Each sample of medium was serially 10-fold diluted in sterile saline solution and plated in molten agar. Each coupon was thoroughly rinsed to remove any adhered particles, aseptically scraped, and the material removed by scraping was quantitatively dispersed in saline solution, vortexed, serially 10-fold diluted and plated in molten agar. Viable counts of microorganisms were taken after 48 h of incubation at 35° C. Viable counts of cells in the medium are presented as colony forming units (cfu) per ml; viable counts on the coupon surfaces are presented as cfu/cm^2.

[2] = system: H2O2-degrading enzymes
Experimental: (§1) The reaction pH was Maintained at 9.8-10.0. The Production process was controlled to ensure synchronous metering of the two chemicals, continuous mixing at the predetermined molar ratio and reproducible production of a stable biofilm inhibiting substance stock solution for the duration of the trial and longer. […] After 850 minutes the dosing rate was reduced to 85 g/ton expressed as total Cl2 by feeding the biofilm inhibiting substance semi-continuously. Various parameters were monitored during start-up of the trial: Residual biofilm inhibiting substance was measured (using a Hach pocket colorimeter, total Cl2, based on the DPD method adapted from Standard Methods for Examination of Waste and Waste Water). Residual hydrogen peroxide was measured using either LASA 20 with the LCW 085 method, based on the method of Jander/Blasius, Lehrbuch der Analytischen and Praparative Anorganischen Chemie, as described in the Handbook of Photometrical Operation Analysis by Dr. Lange for the LASA 20, October 1997 (in cases of high concentration), or Merck Test Strips (0.5-25 ppm). When necessary, samples were diluted with DI water.
(§2) The activity of H2O2-degrading enzymes in the process water was measured according to the following procedure: a commercial solution of H2O2 was diluted with DI water to a final concentration of 100 g/l water (10%). One ml of the diluted H2O2 solution was added to 9 ml of a sample taken from the treated de-inking process water to form a final feed rate of 10 g/l H2O2. The combined sample was incubated at room temperature for 15 minutes, at which time residual H2O2 was measured. Hydrogen peroxide diluted in DI water served as a control. […] Adenosine triphosphate (ATP) measurements in Table 6 are based on the following process: during the change from ATP to Adenosine monophosphate (AMP) in the presence of luciferin and luciferase, a defined quantity of light is emitted per ATP molecule. This emitted light is measured by a photometer. The results are given in relative terms and are thus relative and not absolute (RLU=relative light unit). The values can be correlated with microbial activity in the sense that for high viable counts, a high ATP measurement is obtained, and vice versa.

[3] = system: planktonic microorganisms
Experimental: as §1, §2

[4] = system: microorganisms, principally bacteria; details: for silo/slime formers: Plate Count agar with high excess of glucose; for silo/total count: R2A Agar
Experimental: Process water samples were drawn and immediately inactivated with sodium thiosulfate to degrade any residue of the biofilm inhibiting substance. Samples were then serially ten-fold diluted in a Trypton (DIFCO) saline dilution medium. The diluted samples were plated in molten R2A Agar (hereinafter=“total count”) and in molten Plate Count agar containing a high excess of glucose (hereinafter “slime formers”). The agar solidified at room temperature and the plates were incubated at 35° C. for 48 h.

[5] = time 100 min, continuous feed 170 g/ton as total Cl2
[6] = time 240 min, continuous feed 170 g/ton as total Cl2
[7] = time 850 min, continuous feed 170 g/ton as total Cl2
[8] = time 1500 min, semi-continuous feed 85 g/ton as total Cl2 since 850 min
[9] = day 1 of trial, cleaning period
[10] = day 2 of trial, cleaning period
[11] = day 3 of trial, cleaning period
[12] = day 4 of trial, cleaning period
[13] = day 6 of trial, cleaning period
[14] = day 7 of trial, cleaning period
[15] = day 8 of trial, cleaning period
[16] = day 9 of trial, cleaning period
[17] = day 10 of trial, cleaning period
[18] = day 13 of trial, cleaning period
[19] = day 16 of trial, clean paper machine
[20] = day 17 of trial, clean paper machine
[21] = day 20 of trial, clean paper machine
[22] = day 21 of trial, clean paper machine
[23] = day 24 of trial, clean paper machine
[24] = day 27 of trial, clean paper machine

Substance: bromide activated chloramine [Fuzzicide BAC]
- state of coupons ([1]; after 2 days): remained clean
- state of coupons ([1]; after 4 days): remained clean
- control of planktonic microorganisms ([1]; medium sample after four days, within detection limits): complete control of planktonic microorganisms
- Viable Counts After 2 Days, medium ([1]; planktonic cells in circulating medium, day 2, daily slug dose (Mixed Halogens 5 ppm, Fuzzicide BAC […] expressed as Cl2), 35° C.): 1 × 10^6 cfu/ml
- Viable Counts After 4 Days, medium ([1]; planktonic cells in circulating medium, day 4, daily slug dose (Mixed Halogens 5 ppm, Fuzzicide BAC […] expressed as Cl2)): <100* cfu/ml
- Viable Counts After 2 Days, coupon surfaces ([1]; stainless steel coupons, day 2, daily slug dose (Mixed Halogens 5 ppm, Fuzzicide BAC […] expressed as Cl2)): <27* cfu/cm^2
- Viable Counts After 4 Days, coupon surfaces ([1]; stainless steel coupons, day 4, daily slug dose (Mixed Halogens 5 ppm, Fuzzicide BAC […] expressed as Cl2)): <27* Cfu/cm^2
- Reduction in Catalase Activity, as % of initial H2O2 concentration ([2]; time 0 min (start of dosing, baseline), 10 g/l H2O2 added to sample, 15 min): 37.6%
- Reduction in Catalase Activity, as % of initial H2O2 concentration [2, 5]: 17.8%
- Reduction in Catalase Activity, as % of initial H2O2 concentration [2, 6]: 54.7%
- Reduction in Catalase Activity, as % of initial H2O2 concentration [2, 7]: 92%
- Reduction in Catalase Activity, as % of initial H2O2 concentration [2, 8]: 135.1%
- ATP (RLU) ([3]; time 0 min (start of dosing, baseline)): 132276 RLU
- ATP (RLU) [3, 5]: 6340 RLU
- ATP (RLU) [3, 6]: 2861 RLU
- ATP (RLU) [3, 7]: 535 RLU
- ATP (RLU) [3, 8]: 3568 RLU
- silo/slime formers [4, 9]: 1.0 × 10^1 cfu
- silo/total count [4, 9]: 1 × 10^0 cfu
- silo/slime formers [4, 10]: 5.92 × 10^3 cfu
- silo/total count [4, 10]: 5.68 × 10^4 cfu
- silo/slime formers [4, 11]: 2.0 × 10^2 cfu
- silo/total count [4, 11]: 4.8 × 10^4 cfu
- silo/slime formers [4, 12]: 1.0 × 10^0 cfu
- silo/total count [4, 12]: 7.6 × 10^3 cfu
- silo/slime formers [4, 13]: 1.2 × 10^2 cfu
- silo/total count [4, 13]: 3.8 × 10^3 cfu
- silo/slime formers [4, 14]: 1.0 × 10^0 cfu
- silo/total count [4, 14]: 4.0 × 10^3 cfu
- silo/slime formers [4, 15]: 4.0 × 10^1 cfu
- silo/total count [4, 15]: 1.68 × 10^3 cfu
- silo/slime formers [4, 16]: 2.2 × 10^2 cfu
- silo/total count [4, 16]: 5.0 × 10^3 cfu
- silo/slime formers [4, 17]: 1.0 × 10^0 cfu
- silo/total count [4, 17]: 1.18 × 10^3 cfu
- silo/slime formers [4, 18]: 1.0 × 10^1 cfu
- silo/total count [4, 18]: 2.4 × 10^3 cfu
- silo/slime formers [4, 19]: 1.0 × 10^0 cfu
- silo/total count [4, 19]: 2.0 × 10^2 cfu
- silo/slime formers [4, 20]: 1.0 × 10^0 cfu
- silo/total count [4, 20]: 6.0 × 10^1 cfu
- silo/slime formers [4, 21]: 1.0 × 10^0 cfu
- silo/total count [4, 21]: 3.0 × 10^2 cfu
- silo/slime formers [4, 22]: 1.0 × 10^0 cfu
- silo/total count [4, 22]: 7.5 × 10^2 cfu
- silo/slime formers [4, 23]: 1.0 × 10^0 cfu
- silo/total count [4, 23]: 1.0 × 10^2 cfu
- silo/slime formers [4, 24]: 1.0 × 10^0 cfu
- silo/total count [4, 24]: 1.1 × 10^2 cfu
- viable counts in process water samples taken from the silo ([4]; initial cleaning period, irrespective of high or low residue of Fuzzicide BAC): 10^3-10^4 viable cells per ml
